# Reference: publication PMC5856786, “A DHODH inhibitor increases p53 synthesis and enhances tumor cell killing by p53 degradation blockage” (Nature Communications, 2018)
# Assays:
# recombinant human DHODH = recombinant human DHODH (Homo sapiens, UniProt Q02127); assay: Endpoint DHODH enzyme assay (coenzyme Q10, DCIP); type: biochemical; set-up: purchased Prospecbio ENZ-642; conditions: compound at 10 µM; Supplementary Table 5, 20,000 compound library
# Experimental: In Supplementary Tables 5 and 6, endpoint assays were performed with 10 nM recombinant human DHODH (#ENZ-642, Prospecbio). The reaction mixture consisted of 624.6 µM DL-dihydroorotic acid, 66.4 µM coenzyme Q10, 66.4 µM 2,6-dichlorophenolindophenol sodium salt (DCIP) (all reagents purchased from Sigma-Aldrich) in enzyme buffer (50 mM Tris-HCl, pH 8.0, 0.1% Triton X-100, 150 mM KCl). Loss in absorbance by DCIP was measured at 595 nm after incubation at RT for 60 min.
# ARN8 cells = assay: SRB growth/viability assay, ARN8; type: cell-based, human; conditions: ARN8; Fig. 4e
# Experimental: SRB assays measuring protein content were performed in 96-well plates as previously described.
# recombinant human DHODH, sequence (Q02127 31-395 limits assumed): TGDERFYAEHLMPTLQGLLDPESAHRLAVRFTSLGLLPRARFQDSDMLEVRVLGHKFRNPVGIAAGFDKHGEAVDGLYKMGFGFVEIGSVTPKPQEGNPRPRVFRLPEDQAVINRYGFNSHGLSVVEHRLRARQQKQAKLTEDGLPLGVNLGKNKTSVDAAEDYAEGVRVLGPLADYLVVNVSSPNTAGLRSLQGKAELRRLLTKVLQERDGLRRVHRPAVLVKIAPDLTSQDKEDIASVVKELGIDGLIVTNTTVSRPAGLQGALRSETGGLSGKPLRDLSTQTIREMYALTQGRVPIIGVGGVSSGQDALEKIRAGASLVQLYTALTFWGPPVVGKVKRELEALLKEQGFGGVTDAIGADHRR
Compound,remaining activity at 10 µM (recombinant human DHODH) [%],other results
"Cc1ccccc1-c1noc(-c2ccc(N3CCC[C@H]3CO)nc2)n1 [compound 54631106, ((2S)-1-{5-[3-(2-methylphenyl)-1,2,4-oxadiazol-5-yl]-2-pyridinyl}-2-pyrrolidinyl)methanol]",,remaining DHODH activity (%) Average (recombinant human DHODH): 5.94%
"CCC(C)Nc1ccc(-c2nc(-c3cccc(OC)c3OC)no2)cn1 (centres unmarked) [compound 55410102, N-(sec-butyl)-5-[3-(2,3-dimethoxyphenyl)-1,2,4-oxadiazol-5-yl]-2-pyridinamine]",2.28,
"CCN(CC)c1ccc(-c2nc(-c3cccc(OC)c3OC)no2)cn1 [compound 57235883, 5-[3-(2,3-dimethoxyphenyl)-1,2,4-oxadiazol-5-yl]-N,N-diethyl-2-pyridinamine]",9.4,
"COc1ccc(C2c3[nH]c4ccccc4c3CCN2Cc2nccs2)cc1C (stereo not drawn) [compound 90739158, 1-(4-methoxy-3-methylphenyl)-2-(1,3-thiazol-2-ylmethyl)-2,3,4,9-tetrahydro-1H-beta-carboline]",,remaining DHODH activity (%) Average (recombinant human DHODH): 91.88%
"C/C(O)=C(\C#N)C(=O)Nc1ccc(C(F)(F)F)cc1 [teriflunomide, reference compound]",,effects on ARN8 growth and p53-dependent transcription ± uridine compared with HZ00 (ARN8 cells): phenocopied the effects of HZ00

# Second part, led by results:
remaining activity at 10 µM (recombinant human DHODH) [%],Compound,other results
16.7,"COc1cccc(-c2noc(-c3ccc(N4CCCCC4)nc3)n2)c1OC [compound 57999135, 5-[3-(2,3-dimethoxyphenyl)-1,2,4-oxadiazol-5-yl]-2-(1-piperidinyl)pyridine]",
88.5,"COc1ccc(C2c3[nH]c4ccccc4c3CCN2Cc2ccoc2)c(F)c1 (stereo not drawn) [compound 76026685, 1-(2-fluoro-4-methoxyphenyl)-2-(3-furylmethyl)-2,3,4,9-tetrahydro-1H-beta-carboline]",
42.3,"COc1cccc(-c2noc(-c3ccc(N4CCCC(O)C4)nc3)n2)c1OC (centres unmarked) [compound 78928129, 1-{5-[3-(2,3-dimethoxyphenyl)-1,2,4-oxadiazol-5-yl]-2-pyridinyl}-3-piperidinol]",
